Experimental data taken from paper PMC10895676, “Antiviral Activity of Lipophilic Nucleoside Tetraphosphate Compounds” (Journal of Medicinal Chemistry, 2024).

Assay: Hydrolysis in citrate-stabilized human plasma
Assay type: in vitro ADME
Conditions: 37 °C, read-out: t1/2 in citrate-stabilized human plasma (converted)
Method: Finally, the supernatant was divided into aliquots and frozen at −80 °C.
Two different samples, including 10 μL of water and 10 μL of 6.0 mM hydrolysis solution, were prepared in 2 mL Eppendorf vials. Next, 50 μL of human CEM cell extracts or 50 μL of human citrate plasma were added to the mixture, the reaction was started, and the mixture was incubated at 37 °C for different time periods. The reactions were stopped by the addition of 150 μL of MeOH. The resulting suspension was kept on ice for 5 min, followed by defrosting and centrifugation at 14,000 rpm (Heraeus, Biofuge Pico) for 22 min. The supernatants (80 or 60 μL) were directly injected into HPLC. The calculation of t1/2 was performed analogously to that for the chemical hydrolysis studies.

SMILES | half-life at 0.86 mM [h]
CCCCCCCCCCCCCCCCCCP(=O)(OCCCC)OP(=O)(O)OP(=O)(O)OP(=O)(O)OC[C@@H]1C=C[C@H](n2cc(C)c(=O)[nH]c2=O)O1 (some centres unmarked) [5a, δ-(Alkyl-C4)-δ-C-(alkyl-C18)-d4T4P] | > 22
CCCCCCCCCCCCCCCCCCP(=O)(O)OP(=O)(O)OP(=O)(O)OP(=O)(O)OC[C@@H]1C=C[C@H](n2cc(C)c(=O)[nH]c2=O)O1 [compound 24, δ-C-(Alkyl-C18)-d4T4P] | > 22
